Measured values as given in patent US20260000645A1, “USE OF EBSELEN OR ONE OF THE DERIVATIVES THEREOF TO TREAT MITOCHONDRIAL PATHOLOGIES OR DYSFUNCTIONS” (ASSOCIATION FRANCAISE CONTRE LES MYOPATHIES, priority 2022, published 2026).

Tests used:
[1] = test system: fibroblasts of TAZ patients; experiment: Respiratory growth/proliferation of fibroblasts of TAZ patients (SRB, low glucose); type: cell-based, human; settings: 96 hours; vs negative control DMSO
Method: EBS was tested for the effect thereof on the respiratory growth of fibroblasts of TAZ patients, as opposed to fibroblasts from eight different patients, carriers of mutations in the TAZ gene (suffering from Barth's syndrome).
The rate of proliferation was measured in a medium with a weak concentration of glucose (1 g/L; to force cells to use the OXPHOS system rather than glycolyse) in 384 well micro-titration plates (1200 cells/wells at T0) using the Sulforhodamine B (SRB) staining protocol at 24, 48, 72 or 96 hours after placing the cells with or without 12.15 nM of EBS.
The data are the average of 8 patients or 3 controls in triplicate, in 4 independent experiments.
The rate of proliferation was then measured under the same experimental conditions but with variable concentrations of ethaselen: The cells were analyzed 96 hours after treatment with increasing doses of ethaselen (from 150 pM to 26.1 μM). The bars represent the average of 4 replicates coming from 2 patients in 3 independent experiments.

[2] = test system: mutant yeast strain taz1; experiment: Halos test: respiratory growth of mutant yeast strain taz1 on non-fermentable solid medium; type: cell-based, Saccharomyces cerevisiae; settings: 100 nmoles; compared with ebselen 100 nmoles; no halo with DMSO
Description: C/ Effect (detected by the halos test) of ebselen oxide on the respiratory growth of the mutant yeast strain taz1 on non-fermentable solid medium, in comparison with ebselen (B) and DMSO (D)
As previously described (WO2020/254632), the different mutant yeast strains were spread over the solid respiratory agar-agar based media (containing glycerol or ethanol as the unique carbon source) and exposed to filters on which the compound tested, in particular ebselen (EBS) was deposited. The dishes were then incubated at the temperature indicated (that could be 28° C. or 36° C. depending on the strain used).
More precisely, 0.125 OD of mutant cells with exponential growth were spread homogeneously with sterile glass beads in a square Petri dish (12 cm×12 cm) containing a solid respiratory medium (YPA Ethanol, 1% yeast extract, 0.5% Bacto Peptone, 40 mg/L Adenine, 2% Ethanol for sym1 and taz1; or YPA Glycerol 2% for cox2, fmc1, atp6, shy1 et A29G). […] On each dish, the DMSO (buffer) was used as negative control (upper left-hand filter). The dishes were then incubated at 28° C. (for shy1) or 36° C. (for cox2, sym1, fmc1, atp6 taz1 and A29G) for 4 to 5 days, then photographed. The improvement of the growth was evaluated after a plurality of days of incubation by the appearance of a halo of improved growth around the filter where the active ingredient was deposited.

Structure (SMILES) | concentration range improving respiratory growth/proliferation, lower limit [1] | concentration range improving respiratory growth/proliferation, upper limit [1] [µM] | respiratory growth (halo) of mutant taz1 [2]
O=c1c2ccccc2[se]n1CCn1[se]c2ccccc2c1=O [ethasalen, Ethaselen] | about 1 nM | ≤ 3 | –
O=C1c2ccccc2[Se](=O)N1c1ccccc1 (stereo not drawn) [ebselen oxide, 1-oxide-2-phenyl-1,2-benzisoselenazol-3(2H)-one] | – | – | activity comparable to ebselen
